Measured values taken from patent US20080138395A1, “Pharmaceutical Composition for the Prevention and Control of Cancer” (priority 2005, published 2008).

Test system: H69: human, small cell lung carcinoma
Test: Apoptosis (Annexin testing system) and defective cells in H69 tumor cells in vitro
Format: cell-based
Conditions: 10 days of treatment
Text: The effect of reduced glutathion (G-SH) and anthocyans and betacyans on tumor cell lines, specifically H69: human, small cell lung carcinoma, was examined by in vitro studies, both individually and with various combinations of the ingredient. G-SH and betalain were used in the form of dry extract from beta vulgaris (product: Betatom by Messrs. Sprüh-Atom Schumann & Sohn GmbH, Karlsruhe) and, for purposes of comparison, anthocyans in the form of dry extract from cassis (black currant) and vaccinium (blueberry). The tumor cells were sown in vitro in DMEM with 10% FCS. The final concentration of G-SH, Betatom, cassis and vaccinium, the substances added, was 1 mM. Apoptosis was measured with an Annexin testing system. All tests were repeated once. The effect on H69 tumor cells may be gathered from the table below. After treatment of the cells for ten days, the number both of apoptotic and defective cells was clearly higher in comparison with untreated controls.

[1] = 1 mM, difference to untreated control
[2] = final concentration of substances added 1 mM, DMEM with 10% FCS

Structure (SMILES): N[C@@H](CCC(=O)N[C@@H](CS)C(=O)NCC(=O)O)C(=O)O [GSH, gamma glutamyl cysteinyl glycin]
- apoptotic cells: variation compared with control (%) [1]: −5%
- defective cells: variation compared with control (%) [1]: 8.9%
- apoptotic cells (% of total cells) [2]: 21.9 % of total cells
- defective cells (% of total cells) [2]: 37.9 % of total cells
